From US20190389841A1, “COMPOUNDS FOR TREATMENT OF TRIPLE NEGATIVE BREAST CANCER AND OVARIAN CANCER” (UNIVERSITY OF TENNESSEE RESEARCH FOUNDATION, priority 2018, published 2019)
Read-outs that look alike come from different tables or passages of the source.

Experiments:
Brain penetration = assay type: in vivo
MDA-MB-468 [1] = test: Colony formation assay; assay type: cell-based, human; settings: 8 nM, MDA-MB-468 cells
Method: (§1) Colony formation assay. […] The medium of each group was renewed once a week. […] The morphology of colonies was captured under a microscope and colony area was quantified using ImageJ software (NIH, Bethesda, Md.). The drug treatment was performed in triplicate.

MDA-MB-231 cells [2] = test: Scratch assay (cell migration); assay type: cell-based, human; settings: 16 nM
Method: Cell migration was also analyzed by the scratch assay. […] The following day, a scratch was made in the cell monolayer by using a sterile 200-μl pipette tip. […] After 12 h, 24 h and 48 h, the wound width was determined and imaged with Evos Fl Imaging System (Life Technologies, Carlsbad, Calif.). The extent of wound closure was shown as the percentage of decrease of the original scratch width at each measured time point. Experiments were done in triplicate.

MDA-MB-231 = test: Colony formation assay; assay type: cell-based, human; settings: 8 nM
Method: as §1

[3] = tested on: MDA-MB-231 xenograft tumors; test: H&E and IHC analysis of orthotopic TNBC tumors; assay type: in vivo, NSG mice; settings: 12.5 mg/kg
[4] = tested on: TNBC spontaneous lung metastasis; test: Spontaneous lung metastasis in orthotopic TNBC model; assay type: in vivo, mice; settings: 12.5 mg/kg
[5] = tested on: paclitaxel resistant PC-3 cells; test: In vitro cytotoxicity after 96 hours; assay type: cell-based
MDA-MB-468 [6] = test: cells; settings: Homo sapiens
MDA-MB-231 xenografts = test: Orthotopic TNBC xenograft model, 18 days
MDA-MB-231 cells [7] = test: Experimental lung metastasis model (tail vein); settings: 10 mg/kg, 22 days of treatment
PC-3/TxR tumors = test: Paclitaxel resistant prostate cancer xenograft; settings: in vivo
[8] = after 48 hours, MDA-MB-231 as printed

## COc1cc(C(=O)c2csc(Nc3ccc4[nH]ccc4c3)n2)cc(OC)c1OC [Compound 55, (2-(1H-indol-5-ylamino)thiazol-4-yl)(3,4,5-trimethoxyphenyl)methanone]
Brain penetration; brain, 4 h after oral treatment, read-out: Brain/plasma concentration ratio
  Kp at 4 h: ~0.2
Brain penetration; in vivo
  Brain/plasma concentration ratios over time: remained relatively constant over time
  brain penetration: high brain penetration

## COc1cc2c(c(OC)c1OC)-c1ccc(OC)c(=O)cc1[C@@H](NC(C)=O)CC2 [colchicine]
MDA-MB-468 [1]
  reductions in colony formation: 51%
MDA-MB-231 cells [2]; after 24 hours
  average migration rate, scratch assay: 67.3%
MDA-MB-231 cells [2]; [8]
  average migration rate, scratch assay: 15.8%

## CC(=O)O[C@H]1C(=O)[C@@]2(C)[C@H]([C@H](OC(=O)c3ccccc3)[C@]3(O)C[C@H](OC(=O)[C@H](O)[C@@H](NC(=O)c4ccccc4)c4ccccc4)C(C)=C1C3(C)C)[C@]1(OC(C)=O)CO[C@@H]1C[C@@H]2O [paclitaxel]
MDA-MB-231
  relative percentage of colonies: 27.5%
MDA-MB-468 [1]
  reductions in colony formation: 7.4%
MDA-MB-231 cells [2]; after 24 hours
  average migration rate, scratch assay: 13.3%
MDA-MB-231 cells [2]; [8]
  average migration rate, scratch assay: 14.5%
[3]
  necrotic area of tumors: 41.5%
[4]
  spontaneous lung metastasis, mice: all eight mice had no metastasis
[5]
  potency in paclitaxel resistant PC-3 cells: lose potency
MDA-MB-468 [6]; MDA-MB-468, read-out: IC50 (FIG. 37)
  IC50: 4.61 nM
MDA-MB-468 [6]; MDA-MB-468, read-out: IC50, cell viability
  IC50: 4.61 nM
MDA-MB-231 xenografts; 12.5 mg/kg
  average final tumor weight: 0.38 g
MDA-MB-231 xenografts; 18 days, paclitaxel 12.5 mg/kg
  body weight during treatment: decreased mice body weight significantly
MDA-MB-231 cells [7]
  body weights and physical activities of mice: slightly decreased
  lung metastasis of TNBC: significantly inhibited lung metastasis

## CC(=O)O[C@@]12CO[C@@H]1C[C@H](O)[C@@]1(C)C(=O)[C@H](O)C3=C(C)[C@@H](OC(=O)[C@H](O)[C@@H](NC(=O)OC(C)(C)C)c4ccccc4)C[C@@](O)([C@@H](OC(=O)c4ccccc4)[C@H]21)C3(C)C [docetaxel]
PC-3/TxR tumors
  efficacy in PC-3/TxR tumors: lack of efficacy
[5]
  potency in paclitaxel resistant PC-3 cells: lose potency
